# Assay results reported in ChEMBL document CHEMBL3885861, “Open TG-GATES”.
# Species: Rattus norvegicus
# Assay: Open TG-GATES - Regimen: Single
# Format: toxicity, organism-based, Sprague-Dawley
# Set-up: regimen Single, gender Male, age 6 weeks
# Conditions: in vivo, po, route gavage; for gamma-GTP / ALP / ALT / AST / BUN / CRE / Ca / Cl / DBIL / GLC / IP / K / LDH / Na / PL / RALB / TBIL / TC / TG / TP: tissue Plasma; for APTT / Bas / Eos / Hb / Ht / Lym / MCH / MCHC / MCV / Mono / Neu / PT / Plat / RBC / Ret / WBC / Fbg: tissue Blood; for KIDNEY_L / KIDNEY_R / KIDNEY_TOTAL: tissue Kidney; for LIVER: tissue Liver
# [1] = 300 mg/kg, 24 h, dose level Low
smiles,measurement,setting,value
CCOc1ccc(NC(C)=O)cc1 [PHENACETIN],gamma-GTP,"0 mg/kg, 24 h, dose level Control",1 IU/L
same,TERMINAL_BW,"300 mg/kg, 3 h, dose level Low",214.8 g
same,APTT,"300 mg/kg, 3 h, dose level Low",17.3 s
same,Bas,"300 mg/kg, 3 h, dose level Low",0.4%
same,Eos,"300 mg/kg, 3 h, dose level Low",1%
same,Hb,"300 mg/kg, 3 h, dose level Low",14.3 g/dL
same,Ht,"300 mg/kg, 3 h, dose level Low",42.8%
same,Lym,"300 mg/kg, 3 h, dose level Low",73.2%
same,MCH,"300 mg/kg, 3 h, dose level Low",20.6 pg
same,MCHC,"300 mg/kg, 3 h, dose level Low",33.3%
same,MCV,"300 mg/kg, 3 h, dose level Low",62.2 fL
same,Mono,"300 mg/kg, 3 h, dose level Low",2.6%
same,Neu,"300 mg/kg, 3 h, dose level Low",22.8%
same,PT,"300 mg/kg, 3 h, dose level Low",14 s
same,Plat,"300 mg/kg, 3 h, dose level Low",134.5 x10_4/uL
same,RBC,"300 mg/kg, 3 h, dose level Low",689.2 x10_4/ul
same,Ret,"300 mg/kg, 3 h, dose level Low",8.6%
same,WBC,"300 mg/kg, 3 h, dose level Low",59.5 x10_2/uL
same,KIDNEY_L,"300 mg/kg, 3 h, dose level Low",1 g
same,KIDNEY_R,"300 mg/kg, 3 h, dose level Low",1 g
same,KIDNEY_TOTAL,"300 mg/kg, 3 h, dose level Low",1.9 g
same,LIVER,"300 mg/kg, 3 h, dose level Low",9.3 g
same,ALP,"300 mg/kg, 3 h, dose level Low",1454.6 IU/L
same,ALT,"300 mg/kg, 3 h, dose level Low",38.2 IU/L
same,AST,"300 mg/kg, 3 h, dose level Low",72 IU/L
same,BUN,"300 mg/kg, 3 h, dose level Low",8.4 mg/dL
same,CRE,"300 mg/kg, 3 h, dose level Low",0.2 mg/dL
same,Ca,"300 mg/kg, 3 h, dose level Low",10.9 mg/dL
same,Cl,"300 mg/kg, 3 h, dose level Low",101 meq/L
same,DBIL,"300 mg/kg, 3 h, dose level Low",0 mg/dL
same,GLC,"300 mg/kg, 3 h, dose level Low",206.6 mg/dL
same,IP,"300 mg/kg, 3 h, dose level Low",11.3 mg/dL
same,K,"300 mg/kg, 3 h, dose level Low",3.7 meq/L
same,LDH,"300 mg/kg, 3 h, dose level Low",77.4 IU/L
same,Na,"300 mg/kg, 3 h, dose level Low",141.6 meq/L
same,PL,"300 mg/kg, 3 h, dose level Low",152.4 mg/dL
same,RALB,"300 mg/kg, 3 h, dose level Low",2.6 g/dL
same,TBIL,"300 mg/kg, 3 h, dose level Low",0.034 mg/dL
same,TC,"300 mg/kg, 3 h, dose level Low",83.2 mg/dL
same,TG,"300 mg/kg, 3 h, dose level Low",78.2 mg/dL
same,TP,"300 mg/kg, 3 h, dose level Low",5.7 g/dL
same,gamma-GTP,"300 mg/kg, 3 h, dose level Low",1.4 IU/L
same,TERMINAL_BW,"300 mg/kg, 6 h, dose level Low",205.3 g
same,APTT,"300 mg/kg, 6 h, dose level Low",16.7 s
same,Bas,"300 mg/kg, 6 h, dose level Low",0%
same,Eos,"300 mg/kg, 6 h, dose level Low",0.2%
same,Fbg,"300 mg/kg, 6 h, dose level Low",332.4 mg/dL
same,Ht,"300 mg/kg, 6 h, dose level Low",43.8%
same,Lym,"300 mg/kg, 6 h, dose level Low",74%
same,MCH,"300 mg/kg, 6 h, dose level Low",21.2 pg
same,MCHC,"300 mg/kg, 6 h, dose level Low",33.7%
same,MCV,"300 mg/kg, 6 h, dose level Low",62.9 fL
same,Mono,"300 mg/kg, 6 h, dose level Low",2.4%
same,PT,"300 mg/kg, 6 h, dose level Low",14.2 s
same,Plat,"300 mg/kg, 6 h, dose level Low",124.8 x10_4/uL
same,RBC,"300 mg/kg, 6 h, dose level Low",696 x10_4/ul
same,Ret,"300 mg/kg, 6 h, dose level Low",8.3%
same,WBC,"300 mg/kg, 6 h, dose level Low",66.9 x10_2/uL
same,KIDNEY_L,"300 mg/kg, 6 h, dose level Low",1 g
same,KIDNEY_R,"300 mg/kg, 6 h, dose level Low",0.9 g
same,KIDNEY_TOTAL,"300 mg/kg, 6 h, dose level Low",1.9 g
same,LIVER,"300 mg/kg, 6 h, dose level Low",9.1 g
same,ALP,"300 mg/kg, 6 h, dose level Low",1428.2 IU/L
same,ALT,"300 mg/kg, 6 h, dose level Low",39 IU/L
same,AST,"300 mg/kg, 6 h, dose level Low",71.2 IU/L
same,BUN,"300 mg/kg, 6 h, dose level Low",9.6 mg/dL
same,CRE,"300 mg/kg, 6 h, dose level Low",0.1 mg/dL
same,Ca,"300 mg/kg, 6 h, dose level Low",11.1 mg/dL
same,Cl,"300 mg/kg, 6 h, dose level Low",101.2 meq/L
same,DBIL,"300 mg/kg, 6 h, dose level Low",0 mg/dL
same,GLC,"300 mg/kg, 6 h, dose level Low",198.4 mg/dL
same,IP,"300 mg/kg, 6 h, dose level Low",10.1 mg/dL
same,K,"300 mg/kg, 6 h, dose level Low",3.7 meq/L
same,LDH,"300 mg/kg, 6 h, dose level Low",80.4 IU/L
same,Na,"300 mg/kg, 6 h, dose level Low",140.4 meq/L
same,PL,"300 mg/kg, 6 h, dose level Low",152.6 mg/dL
same,RALB,"300 mg/kg, 6 h, dose level Low",2.7 g/dL
same,TBIL,"300 mg/kg, 6 h, dose level Low",0.046 mg/dL
same,TC,"300 mg/kg, 6 h, dose level Low",94.2 mg/dL
same,TG,"300 mg/kg, 6 h, dose level Low",35.6 mg/dL
same,TP,"300 mg/kg, 6 h, dose level Low",5.8 g/dL
same,gamma-GTP,"300 mg/kg, 6 h, dose level Low",1 IU/L
same,TERMINAL_BW,"300 mg/kg, 9 h, dose level Low",204.1 g
same,APTT,"300 mg/kg, 9 h, dose level Low",17.8 s
same,Bas,"300 mg/kg, 9 h, dose level Low",0%
same,Eos,"300 mg/kg, 9 h, dose level Low",0.6%
same,Fbg,"300 mg/kg, 9 h, dose level Low",313.2 mg/dL
same,Hb,"300 mg/kg, 9 h, dose level Low",14.4 g/dL
same,Ht,"300 mg/kg, 9 h, dose level Low",42.3%
same,Lym,"300 mg/kg, 9 h, dose level Low",72.2%
same,MCH,"300 mg/kg, 9 h, dose level Low",21 pg
same,MCV,"300 mg/kg, 9 h, dose level Low",61.6 fL
same,Mono,"300 mg/kg, 9 h, dose level Low",4.2%
same,Neu,"300 mg/kg, 9 h, dose level Low",22.2%
same,PT,"300 mg/kg, 9 h, dose level Low",13.9 s
same,Plat,"300 mg/kg, 9 h, dose level Low",119.6 x10_4/uL
same,RBC,"300 mg/kg, 9 h, dose level Low",686.6 x10_4/ul
same,Ret,"300 mg/kg, 9 h, dose level Low",8.4%
same,WBC,"300 mg/kg, 9 h, dose level Low",60.7 x10_2/uL
same,KIDNEY_L,"300 mg/kg, 9 h, dose level Low",0.9 g
same,KIDNEY_R,"300 mg/kg, 9 h, dose level Low",0.9 g
same,KIDNEY_TOTAL,"300 mg/kg, 9 h, dose level Low",1.8 g
same,LIVER,"300 mg/kg, 9 h, dose level Low",8.5 g
same,ALP,"300 mg/kg, 9 h, dose level Low",1326.6 IU/L
same,ALT,"300 mg/kg, 9 h, dose level Low",33.4 IU/L
same,AST,"300 mg/kg, 9 h, dose level Low",65.4 IU/L
same,BUN,"300 mg/kg, 9 h, dose level Low",11.6 mg/dL
same,CRE,"300 mg/kg, 9 h, dose level Low",0.2 mg/dL
same,Ca,"300 mg/kg, 9 h, dose level Low",11.1 mg/dL
same,Cl,"300 mg/kg, 9 h, dose level Low",99 meq/L
same,DBIL,"300 mg/kg, 9 h, dose level Low",0.008 mg/dL
same,GLC,"300 mg/kg, 9 h, dose level Low",210.8 mg/dL
same,IP,"300 mg/kg, 9 h, dose level Low",8.8 mg/dL
same,K,"300 mg/kg, 9 h, dose level Low",4 meq/L
same,LDH,"300 mg/kg, 9 h, dose level Low",93 IU/L
same,Na,"300 mg/kg, 9 h, dose level Low",139 meq/L
same,PL,"300 mg/kg, 9 h, dose level Low",163.2 mg/dL
same,RALB,"300 mg/kg, 9 h, dose level Low",2.7 g/dL
same,TBIL,"300 mg/kg, 9 h, dose level Low",0.062 mg/dL
same,TC,"300 mg/kg, 9 h, dose level Low",94.8 mg/dL
same,TG,"300 mg/kg, 9 h, dose level Low",50.6 mg/dL
same,TP,"300 mg/kg, 9 h, dose level Low",5.8 g/dL
same,gamma-GTP,"300 mg/kg, 9 h, dose level Low",1.4 IU/L
same,TERMINAL_BW,[1],210.4 g
same,APTT,[1],16.7 s
same,Bas,[1],0%
same,Eos,[1],1%
same,Fbg,[1],297.4 mg/dL
same,Hb,[1],13.9 g/dL
same,Ht,[1],41.5%
same,Lym,[1],77.4%
same,MCH,[1],20.7 pg
same,MCHC,[1],33.4%
same,MCV,[1],62.2 fL
same,Mono,[1],2.6%
same,Neu,[1],18.6%
same,PT,[1],14.1 s
same,Plat,[1],126.5 x10_4/uL
same,RBC,[1],668.8 x10_4/ul
same,Ret,[1],7.5%
same,WBC,[1],86.4 x10_2/uL
same,KIDNEY_L,[1],1 g
same,KIDNEY_R,[1],1 g
same,KIDNEY_TOTAL,[1],1.9 g
same,LIVER,[1],9.2 g
same,ALP,[1],1966 IU/L
same,ALT,[1],44.4 IU/L
same,AST,[1],83 IU/L
same,BUN,[1],14.4 mg/dL
same,CRE,[1],0.2 mg/dL
same,Ca,[1],11.1 mg/dL
same,Cl,[1],105 meq/L
same,DBIL,[1],0.01 mg/dL
same,GLC,[1],168.6 mg/dL
same,IP,[1],7.7 mg/dL
same,K,[1],4.4 meq/L
same,LDH,[1],149.6 IU/L
same,Na,[1],144 meq/L
same,PL,[1],166 mg/dL
same,RALB,[1],2.6 g/dL
same,TBIL,[1],0.05 mg/dL
same,TC,[1],87.8 mg/dL
same,TG,[1],84.4 mg/dL
